Values quoted from earlier work, collected in patent publication US12420242B1 (KING SAUD UNIVERSITY, priority 2025, dated 2025).
In brackets after ≈: the same amount, converted by molar mass. Where two headings read alike, the source gives them in different places.

Legend:
[1] = not given; remark: listed apart in the source

SMILES | solubility in water [µg/mL] | solubility in water (Table 1) [µg/mL] | Density ([1]; Table 1) [g · cm^−3] | Density [1] [g/mL]
CCCCCCC [n-heptane] | 2 (≈ 20 µM) | 2 (≈ 20 µM) | 0.68 | –
c1ccsc1 [thiophene] | – | – | 1.05 | 1.05
O [water] | – | – | 1.00 | 1.0
